Assay results reported in patent publication US10335455B2, “Method for prevention or treatment of intractable inflammatory bowel disease” (University of Miyazaki, priority 2011, dated 2019).
“Also recorded” adds a separate entry of the source.

Columns and labels:
[1] = tested on: patients with steroid-resistant or steroid-dependent ulcerative colitis; experiment: Continuous intravenous administration of adrenomedullin to patients with intractable ulcerative colitis; assay type: in vivo, human; details: for DAI (Average): 6 cases, immediately before administration 9.0 ± 1.4; for Endoscopic findings in the large bowel: maintenance of remission: continuation treatment azathioprine 50 mg/day
[2] = tested on: subjects including normal individuals; experiment: Safety tests of continuous intravenous injection of adrenomedullin in subjects including normal individuals; assay type: in vivo, human
Procedure: (§1) The safety of continuous intravenous injection of adrenomedullin for 90 minutes was confirmed in 28 subjects including normal individuals. […] In the present Examples, 2 weeks of the animal test period was set to the continuous administration period.

[3] = tested on: various disease model animals; experiment: Continuous intravenous injection of adrenomedullin for 1 month in disease model animals; assay type: in vivo; details: continuous intravenous injection for 1 month
Procedure: as §1

[4] = tested on: large bowel artificial ulcer model; experiment: Enema administration to a large bowel artificial ulcer model; assay type: in vivo; details: 5.0 μg/kg body weight
[5] = tested on: DSS enteritis (diffuse colitis); experiment: Administration in DSS enteritis (diffuse colitis) model; assay type: in vivo; details: 2.5 μg/kg body weight
[6] = tested on: inflammatory bowel disease model; assay type: in vivo
Text: Thus, in the adrenomedullin administration, a low dose to an extent not greatly affecting circulatory dynamics is preferably used; a high dose rather makes it worse.

colitis model = details: Gonzalez et al.; intraperitoneal administration of 12 μg/kg body weight; cited from earlier work

Q: Which results are given for CC[C@H](C)[C@H](NC(=O)[C@H](CCC(N)=O)NC(=O)[C@H](Cc1c[nH]cn1)NC(=O)[C@H](C)NC(=O)[C@H](CC(C)C)NC(=O)[C@H](CCCCN)NC(=O)[C@H](CCC(N)=O)NC(=O)[C@@H](NC(=O)[C@@H](NC(=O)[C@@H]1CSSC[C@H](NC(=O)CNC(=O)[C@H](Cc2ccccc2)NC(=O)[C@H](CO)NC(=O)[C@H](CCCNC(=N)N)NC(=O)[C@H](CC(C)C)NC(=O)CNC(=O)[C@H](CCC(N)=O)NC(=O)[C@H](Cc2ccccc2)NC(=O)[C@H](CC(N)=O)NC(=O)[C@H](CC(N)=O)NC(=O)[C@H](CCSC)NC(=O)[C@H](CO)NC(=O)[C@H](CCC(N)=O)NC(=O)[C@H](CCCNC(=N)N)NC(=O)[C@@H](N)Cc2ccc(O)cc2)C(=O)N[C@@H](CCCNC(=N)N)C(=O)N[C@@H](Cc2ccccc2)C(=O)NCC(=O)N[C@@H]([C@@H](C)O)C(=O)N1)[C@@H](C)O)C(C)C)C(=O)N[C@@H](Cc1ccc(O)cc1)C(=O)N[C@@H](CCC(N)=O)C(=O)N[C@@H](Cc1ccccc1)C(=O)N[C@H](C(=O)N[C@@H](CC(=O)O)C(=O)N[C@@H](CCCCN)C(=O)N[C@@H](CC(=O)O)C(=O)N[C@@H](CCCCN)C(=O)N[C@@H](CC(=O)O)C(=O)N[C@@H](CC(N)=O)C(=O)N[C@H](C(=O)N[C@@H](C)C(=O)N1CCC[C@H]1C(=O)N[C@@H](CCCNC(=N)N)C(=O)N[C@@H](CO)C(=O)N[C@@H](CCCCN)C(=O)N[C@H](C(=O)N[C@@H](CO)C(=O)N1CCC[C@H]1C(=O)N[C@@H](CCC(N)=O)C(=O)NCC(=O)N[C@@H](Cc1ccc(O)cc1)C(N)=O)[C@@H](C)CC)C(C)C)[C@@H](C)O [adrenomedullin, synthetic human adrenomedullin]?
A: DAI (Average) ([1]; 12 weeks after start of administration, p 0.0001): 1.0 ± 1.15; DAI (Average) ([1]; 14 days after start of administration, 1.5 pmol/kg body weight/min i.v., 8 hours/day, p 0.0028): 5.0 ± 2.4; Mucosal regeneration in the affected areas ([1]; all 6 cases): prominent mucosal regeneration was also confirmed; Remission maintenance ([1]; all 6 cases): remission was maintained; Treatment effects ([1]; all 6 cases of adrenomedullin administration): treatment effects were confirmed in all cases; DAI improvement at 14 days after adrenomedullin administration ([1]; in 4 cases of 6): ≥ 4 points; Blood pressure reduction ([1]; one patient, 1.5 pmol/kg body weight/min during 14 days of administration): ≤ 10 mmHg; Variation in the blood concentration of adrenomedullin immediately after administration ([1]; one patient, 1.5 pmol/kg body weight/min i.v.): smaller than variation due to inflammation; Endoscopic findings in the large bowel: maintenance of remission ([1]; one patient, 3 months after adrenomedullin administration): confirmed the maintenance of the remission; also recorded: Remission maintenance was confirmed; Endoscopic findings in the large bowel: maintenance of remission ([1]; one patient, 12 months after adrenomedullin administration): also confirmed the maintenance of the remission; Endoscopic findings in the large bowel ([1]; one patient, after 14 days of continuous administration, 1.5 pmol/kg body weight/min, 8 hours/day): remission due to adrenomedullin was confirmed; also recorded: marked proliferation of regenerated epithelium (left) and scarring of shallow wide ulcer (right); Symptoms considered to be side effects ([1]; one patient, during 14 days of administration): not observed; Blood pressure reduction ([2]; 2.5 pmol/kg body weight/min, continuous administration for 27 hours): more than 20 mmHg; Safety of continuous intravenous injection ([2]; 90 minutes, 28 subjects including normal individuals): confirmed; Adverse events ([2]; continuous intravenous injection for 27 hours, 12 subjects): no adverse event was observed; Safety and efficacy [3]: confirming the safety and efficacy thereof; Effect in large bowel artificial ulcer model [4]: highest; Effect in DSS enteritis (diffuse colitis) [5]: a high effect has also been observed; Curve of adrenomedullin dose versus anti-inflammatory/mucosa-repairing effect ([6]; animal experiments): anti-bell shape; Blood pressure reduction at the optimal (low) dose ([6]; in vivo): proved not to cause blood pressure reduction; Efficacy in colitis model (colitis model): has shown the efficacy
